According to patent US10118895B2, “ROR gamma (RORγ) modulators” (LEAD PHARMA HOLDING B.V., priority 2015, dated 2018):

molecular target: T1, RORγ (Homo sapiens, UniProt P51449); experiment: RORγ GAL4 reporter gene assay (luciferase readout, 293FT cells); assay type: cell-based; conditions: inhibition of RORγ (GAL4-RORγ-LBD) in transfected 293FT cells, luciferase signal, overnight incubation; read-out: mean pIC50 (converted)
T1 construct: expressed in transfected cells; host or cells: 293FT cells (Invitrogen), expression vector pFN26A (Promega)
T1 sequence (P51449 269-508 limits assumed): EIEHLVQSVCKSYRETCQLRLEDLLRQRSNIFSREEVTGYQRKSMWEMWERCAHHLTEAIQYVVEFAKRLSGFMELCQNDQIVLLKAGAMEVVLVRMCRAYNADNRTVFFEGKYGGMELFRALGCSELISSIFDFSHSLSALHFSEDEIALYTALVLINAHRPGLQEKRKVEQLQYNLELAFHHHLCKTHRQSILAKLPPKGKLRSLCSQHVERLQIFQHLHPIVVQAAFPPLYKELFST
Experimental: RORγ GAL4 Reporter Gene Assay
Example inhibitors 1-38 were tested for their ability to inhibit RORγ activity in a RORγ GAL4 reporter gene assay. The assay procedure and results are described below.
RORγ GAL4 Reporter Gene Assay Description
A GAL4 one-hybrid reporter system employing luciferase readout was established to determine inhibition of RORγ in 293FT cells. The RORγ ligand-binding domain (LBD) was fused to the yeast GAL4 DNA binding domain (DBD) and placed under the control of the human cytomegalovirus (CMV) immediate early promoter, using expression vector pFN26A (Promega) and standard recombinant DNA cloning methods. To serve as a control in the assay, a similar vector was generated in which the GAL4-DBD was fused to Herpes simplex virus protein 16 (VP16), a constitutive transcriptional activator.
To monitor the inhibitory effect of compounds on RORγ, a transcriptional reporter construct was used. The pGL4.35 vector (Promega) contains nine copies of the GAL4 Upstream Activator Sequence (UAS). This sequence drives the transcription of the luciferase reporter gene luc2P in response to binding of a fusion protein containing the GAL4 DNA binding domain, as for example expressed by the GAL4-RORγ-LBD and GAL4-VP16 expression vectors described above. To allow a GAL4 fusion protein to drive the expression of the luciferase reporter, the pGL4.35 expression vector and the appropriate GAL4 fusion protein expression vector were bulk transfected in the 293FT cells using standard transfection techniques.
The day after transfection, cells were plated into 96 well plates, test compound was added and the plates were incubated overnight. Subsequently, the firefly luciferase activity was quantified using luciferase detection reagent and luminescence readout.
Detailed Assay Description
293FT cells (Invitrogen) were transfected with a GAL4 fusion protein expression vector (as described above) and the transcriptional reporter construct (pGL4.35, Promega). 60 μL of TransIT-293 transfection reagent (Mirus Bio) was added drop wise to 1500 μl Opti-MEM I Reduced Serum Medium (Invitrogen) and incubated at RT (RT) for 5 to 20 minutes. 1500 μL of this reagent mixture was added to 5 μg of GAL4 fusion protein expression vector and 5 μg of the transcriptional reporter construct, and incubated at RT for 20 minutes.
To harvest 293FT cells from a T75 flask, first the culture medium was taken off the cells. Subsequently, the cells were washed with Phosphate Buffered Saline (PBS) (Lonza), after which the PBS was removed. To dissociate the cells, 1 ml of TrypLE Express (Invitrogen) was added to the flask, followed by incubation at RT until the cells visually started to detach. Cells were collected in 5 mL of assay medium (DMEM culture medium (Lonza), 10% dialyzed FBS (Invitrogen) and Pen/Strep (Lonza)) to achieve a single cell suspension. 10×10^6 cells were spun down and re-suspended in 10 mL of assay medium. Subsequently, the cell suspension was added to the transfection mix tube, and then transferred as a whole to a T75 flask (Greiner), followed by overnight (16-24 hours) incubation at 37° C. and 5% CO2.
For compound screening, the cells were harvested (as described above) and counted. 13×10^6 cells were spun down, the supernatant was aspirated and the cells were re-suspended in 17.3 mL of assay medium obtaining a cell suspension of 0.75×10^6 cells/mL. 80 μL of cell suspension (60,000 cells) was plated per well into a white, flat bottom, tissue culture treated, 96 well screening plates (Greiner).
Test compounds were diluted, starting from a 10 mM dimethylsulfoxide (DMSO) stock solution, to serial dilutions in DMSO at 500× the final test concentration. Subsequently, these solutions were diluted to 5× the final test concentration in two 10-fold-dilution steps in assay medium. The final DMSO concentration of the 5× test compound solution was 1%. […]

IC50 [nM]	SMILES
≤ 1000	O=C(Cc1ccc(S(=O)(=O)CC2CC2)nc1)Nc1ccc(C(O)(C2CCCC2)C(F)(F)F)cc1 (stereo not shown) [Example 14, N-[4-(1-cyclopentyl-2,2,2-trifluoro-1-hydroxy-ethyl)phenyl]-2-[6-(cyclopropylmethylsulfonyl)-3-pyridyl]acetamide]
≤ 1000	O=C(Cc1cnc(S(=O)(=O)CC2CC2)nc1)Nc1ccc(C(O)(C(F)(F)F)C(F)(F)F)cc1 [Example 38, 2-[2-(cyclopropylmethylsulfonyl)pyrimidin-5-yl]-N-[4-[2,2,2-trifluoro-1-hydroxy-1-(trifluoromethyl)ethyl]phenyl]acetamide]
≤ 100	O=C(Cc1ccc(S(=O)(=O)CC2CC2)nc1)Nc1ccc(C(O)(C(F)(F)F)C(F)(F)F)cc1F [Example 8, 2-[6-(cyclopropylmethylsulfonyl)-3-pyridyl]-N-[2-fluoro-4-[2,2,2-trifluoro-1-hydroxy-1-(trifluoromethyl)ethyl]phenyl]acetamide]
≤ 1000	O=C(Cc1ccc(S(=O)(=O)CC2CC2)nn1)Nc1ccc(C(O)(C(F)(F)F)C(F)(F)F)cc1 [Example 37, 2-[6-(cyclopropylmethylsulfonyl)pyridazin-3-yl]-N-[4-[2,2,2-trifluoro-1-hydroxy-1-(trifluoromethyl)ethyl]phenyl]acetamide]
≤ 1000	CCCC(O)(c1ccc(NC(=O)Cc2ccc(S(=O)(=O)CC3CC3)nc2)cc1)C(F)(F)F (stereo not shown) [Example 11, 2-[6-(cyclopropylmethylsulfonyl)-3-pyridyl]-N-[4-[1-hydroxy-1-(trifluoromethyl)butyl]phenyl]acetamide]
≤ 1000	Cc1cc(C(O)(C(F)(F)F)C(F)(F)F)ccc1NC(=O)Cc1ccc(S(=O)(=O)CC2CC2)nc1 [Example 7, 2-[6-(cyclopropylmethylsulfonyl)-3-pyridyl]-N-[2-methyl-4-[2,2,2-trifluoro-1-hydroxy-1-(trifluoromethyl)ethyl]phenyl]acetamide]
≤ 1000	COc1cc(NC(=O)Cc2ccc(S(=O)(=O)CC3CC3)nc2)ccc1C(O)(C(F)(F)F)C(F)(F)F [Example 6, 2-[6-(cyclopropylmethylsulfonyl)-3-pyridyl]-N-[3-methoxy-4-[2,2,2-trifluoro-1-hydroxy-1-(trifluoromethyl)ethyl]phenyl]acetamide]
≤ 1000	O=C(Cc1ccc(S(=O)(=O)CC2CC2)nc1)Nc1ccc(C(O)(CC2CCCCC2)C(F)(F)F)cc1 (stereo not shown) [Example 16, N-[4-[1-(cyclohexylmethyl)-2,2,2-trifluoro-1-hydroxy-ethyl]phenyl]-2-[6-(cyclopropylmethylsulfonyl)-3-pyridyl]acetamide]
≤ 1000	O=C(Cc1ncc(S(=O)(=O)CC2CC2)cn1)Nc1ccc(C(O)(C(F)(F)F)C(F)(F)F)cc1 [Example 35, 2-[5-(cyclopropylmethylsulfonyl)pyrimidin-2-yl]-N-[4-[2,2,2-trifluoro-1-hydroxy-1-(trifluoromethyl)ethyl]phenyl]acetamide]
≤ 1000	Cc1nc(S(=O)(=O)CC2CC2)ccc1CC(=O)Nc1ccc(C(O)(C(F)(F)F)C(F)(F)F)cc1 [Example 24, 2-[6-(cyclopropylmethylsulfonyl)-2-methyl-3-pyridyl]-N-[4-[2,2,2-trifluoro-1-hydroxy-1-(trifluoromethyl)ethyl]phenyl]acetamide]
